{"source": "patent US20020193377A1", "about": "“Quinazolines as MMP-13 inhibitors” (priority 2001, published 2002)"}
{"target": "T1, human collagenase-3 catalytic domain enzyme (MMP13) (Homo sapiens, UniProt P45452)", "T1 construct": "human collagenase-3 catalytic domain enzyme", "test": "MMP13CD Thiopeptolide Assay", "assay_type": "biochemical", "method": "MMP13CD Thiopeptolide Assay: Proteolysis of the thiopeptolide substrate Ac-Pro-Leu-Gly-thioester-Leu-Leu-Gly-OEt is used as the primary screen to determine IC50 values for MMP13 inhibitors. A 100 μl reaction contains 50 mM HEPES, 10 mM CaCl2, pH 7.0 (RT), 1 mM 5,5′-dithiobis(2-nitrobenzoic acid) (DTNB), 100 μM substrate, inhibitor in 2.0% DMSO and 2.5 nM human collagenase-3 catalytic domain enzyme. Inhibitors are screened from 100 μM to 0.5 nM. […] Percentage of control velocity in inhibited treatments is plotted against inhibitor concentration to calculate IC50 values.", "units": {"IC50": "nM"}}
{"smiles": "O=C(NCc1cccnc1)c1ccc2[nH]c(=O)n(Cc3ccccc3)c(=O)c2c1", "note": "[Example 5, 3-Benzyl-2,4-dioxo-1,2,3,-tetrahydroquinazoline-6-carboxylic acid (3-pyridylmethyl)amide]", "IC50": 193}
{"smiles": "Cn1c(=O)n(Cc2cccs2)c(=O)c2cc(C(=O)NCc3ccc4c(c3)OCO4)ccc21", "note": "[Example 24, 1-Methyl-2,4-dioxo-3-(thien-2-ylmethyl)-1,2,4,4-tetrahydroquinazoline-6-carboxylic acid (benzo[1,3]dioxol-5-ylmethyl)amide]", "IC50": 51}
{"smiles": "CC(C)Cn1c(=O)n(Cc2ccccc2)c(=O)c2cc(C(=O)NCc3ccc4c(c3)OCO4)ccc21", "note": "[Example 32, 3-Benzyl-1-isobutyl-2,4-dioxo-1,2,3,4-tetrahydroquinazoline-6-carboxylic acid (benzo[1,3]dioxol-5-ylmethyl)amide]", "IC50": 17}
{"smiles": "O=C(NCc1ccc2c(c1)OCO2)c1ccc2[nH]c(=O)n(Cc3ccncc3)c(=O)c2c1", "note": "[Example 20, 2,4-Dioxo-3-(pyrid-4-ylmethyl)-1,2,3,4-tetrahydroquinazoline-6-carboxylic acid (benzo[1,3]dioxol-5ylmethyl)amide]", "IC50": 15}
{"smiles": "O=C(NCc1ccc2c(c1)OCO2)c1ccc2c(c1)c(=O)n(Cc1ccccc1)c(=O)n2CC1CC1", "note": "[Example 31, 3-Benzyl-1-cyclopropylmethyl-2,4-dioxo-1,2,3,4-tetrahydroquinazoline-6-carboxylic acid (benzo[1,3]dioxol-5-ylmethy)amide]", "IC50": 1700}
{"smiles": "Cn1c(=O)n(CCc2ccccc2)c(=O)c2cc(C(=O)NCc3ccc4c(c3)OCO4)ccc21", "note": "[Example 15, 1-Methyl-2,4-dioxo-3-phenethyl-1,2,3,4-tetrahydroquinazoline-6-carboxylic acid (benzo[1,3]dioxol-5-ylmethyl)amide]", "IC50": 2250}
{"smiles": "O=C(OCc1ccncc1)c1ccc2[nH]c(=O)n(Cc3ccccc3)c(=O)c2c1", "note": "[Example 39, 4-Pyridylmethyl 3-benzyl-2,4-dioxo-1,2,3,4-tetrahydroqinazoline-6-carboxylate]", "IC50": 1}
{"smiles": "Cn1c(=O)[nH]c(=O)c2cc(C(=O)NCc3ccc4c(c3)OCO4)ccc21", "note": "[Example 33, 1-Methyl-2,4-dioxo-1,2,3,4-tetrahydrquinazoline-6-carboxylic acid (benzo[1,3]-dioxol-5-ylmethyl)amide]", "IC50": 3}
{"smiles": "COc1ccc(CNC(=O)c2ccc3[nH]c(=O)n(Cc4ccccc4)c(=O)c3c2)cc1", "note": "[Example 6, 3-Benzyl-2,4-dioxo-1,2,3,4-tetrahydroquinazoline-6-carboxylic acid 4-methoxybenzylamide]", "IC50": 183}
{"smiles": "Cn1c(=O)n(Cc2ccccc2)c(=O)c2cc(C(=O)NCc3ccc4c(c3)OCO4)ccc21", "note": "[Example 9, 3-Benzyl-1-methyl-2,4-dioxo-1,2,3,4-tetrahydroquinazoline-6-carboxylic acid (benzo[1,3]dioxol-5-ylmethyl)amide]", "IC50": 366}
{"smiles": "O=C(OCc1ccncc1)c1cnc2[nH]c(=O)n(Cc3ccccc3)c(=O)c2c1", "note": "[Example 47, 4-Pyridylmethyl 3-benzyl-2,4-dioxo-1,2,3,4-tetrahydropyrido[2,3-α]pyrimidine-6-carboxylate]", "IC50": 1210}
{"smiles": "COC(=O)c1ccc(Cn2c(=O)c3cc(C(=O)NCc4ccc(OC)cc4)ccc3n(C)c2=O)cc1", "note": "[Example 34, Methyl 4-[6-(4-methoxy-benzylcarbamoyl)-1-methyl-2,4-dioxo-1,4-dihydro-2H-quinazolin-3-ylmethyl]-benzoate]", "IC50": 26}
{"smiles": "Cn1c(=O)n(Cc2ccccc2)c(=O)c2cc(C(=O)OCc3ccc4c(c3)OCO4)ccc21", "note": "[Example 42, Benzo[1,3]dioxol-5-ylmethyl3-benzyl-1-methyl-2,4-dioxo-1,2,3,4-tetrahydroquinazoline-6-carboxylate]", "IC50": 31}
{"smiles": "CCn1c(=O)n(Cc2ccccc2)c(=O)c2cc(C(=O)NCc3ccc4c(c3)OCO4)ccc21", "note": "[Example 30, 3-Benzyl-1-ethyl-2,4-dioxo-1,2,3,4-tetraquinazoline-6-carboxylic acid (benzo[1,3]dioxol-5-ylmethyl)amide]", "IC50": 9}
{"smiles": "O=C(OCc1ccccc1)c1ccc2c(c1)c(=O)n(Cc1ccncc1)c(=O)n2Cc1ccccc1", "note": "[Example 43, Benzyl 1-benzyl-2,4-dioxo-3-pyrid-4-ylmethyl-1,2,3,4-tetrahydroquinazoline-6carboxylate]", "IC50": 11}
{"smiles": "Cn1c(=O)c2cc(C(=O)NCc3ccc4c(c3)OCO4)ccc2n(C)c1=O", "note": "[Example 27, 1,3-Dimethyl-2,4-dioxo-1,2,3,4-tetrahydroquinazoline-6-carboxylic acid (benzo[1,3]dioxol-5-ylmethyl)amide]", "IC50": 29}
{"smiles": "COc1ccc(CNC(=O)c2ccc3c(c2)c(=O)n(Cc2ccc(OC)cc2)c(=O)n3C)cc1", "note": "[Example 18, 3-(4-Methoxybenzyl)-1-methyl-2,4-dioxo-1,2,3,4-tetrahydroquinazoline-6-carboxylic acid 4-methoxybenzylamide]", "IC50": 51}
{"smiles": "O=C(OCc1ccccc1)c1ccc2[nH]c(=O)n(Cc3ccccc3)c(=O)c2c1", "note": "[Example 37, Benzyl 3-benzyl-2,4-dioxo-1,2,3,4-tetrahydroquinazolne-6-carboxylate]", "IC50": 750}
{"smiles": "Cn1c(=O)n(C/C=C/c2ccccc2)c(=O)c2cc(C(=O)NCc3ccc4c(c3)OCO4)ccc21", "note": "[Example 36, 1-Methyl-2,4-dioxo-3-((E)-3phenylally)-1,2,3,4-tetrahydroquinazoline-6-carboxylic acid (benzo[1,3]dioxol-5-ylmethyl)amide]", "IC50": 600}
{"smiles": "COc1ccc(CNC(=O)c2ccc3c(c2)c(=O)n(Cc2ccccc2)c(=O)n3C)cc1", "note": "[Example 13, 3-Benzyl-1-methyl-2,4-dioxo-1,2,3,4-tetrahydroquinazoline-6-carboxylic acid 4-methoxybenzylamide]", "IC50": 5}
{"smiles": "O=C(NCc1ccc(Cl)cc1)c1ccc2[nH]c(=O)n(Cc3ccccc3)c(=O)c2c1", "note": "[Example 7, 3-Benzyl-2,4-dioxo-1,2,3,4-tetrahydroquinzaoline-6carboxylic acid 4-chlorobenzylamide]", "IC50": 21}
{"smiles": "O=C(NCc1ccc2c(c1)OCO2)c1ccc2[nH]c(=S)n(Cc3ccccc3)c(=O)c2c1", "note": "[Example 48, 3-Benzyl-4-oxo-2-thioxo-1,2,3,4-tetrahydroquinazoline-6-carboxylic acid (benzo[1,3]dioxol-5-ylmethyl)amide]", "IC50": 16}
{"smiles": "COc1ccc(Cn2c(=O)c3cc(C(=O)NCc4ccc5c(c4)OCO5)ccc3n(C)c2=O)cc1", "note": "[Example 17, 3-(4-Methoxybenzyl)-1-methyl-2,4-dixo-1 3,4-tetrahydroquinazoline-6-carboxylic acid (benzo[1,3]dioxo-5-ylmethyl)amide]", "IC50": 12}
{"smiles": "COc1ccc(CNC(=O)c2ccc3c(c2)c(=O)n(Cc2ccc(C(=O)N(C)C)cc2)c(=O)n3C)cc1", "note": "[Example 50, 3-(4-Dimethylcarbamoyl-benzyl)-1-methyl-2,4-dioxo-1,2,3,4-tetrahydro quinazoline-6-carboxylic acid 4-methoxy-benzylamide]", "IC50": 96}
{"smiles": "CNC(=O)c1ccc(Cn2c(=O)c3cc(C(=O)NCc4ccc(OC)cc4)ccc3n(C)c2=O)cc1", "note": "[Example 51, 1-Methyl-3-(4-methylcarbamoyl-benzyl)-2,4-dioxo-1,2,3,4-tetrahydro-quinazoline-6-carboxylic acid 4-methoxy-benzylamide]", "IC50": 62}
{"smiles": "Cn1c(=O)n(Cc2ccccc2)c(=O)c2cc(C(=O)OCc3ccncc3)ccc21", "note": "[Example 40, 4-Pyridylmethyl 3-benzyl-1-methyl-2,4-dioxo-1,3,3,4-tetrahydroquinazoline-6-carboxylate]", "IC50": 28}
{"smiles": "Cn1c(=O)n(Cc2ccc3c(c2)OCO3)c(=O)c2cc(C(=O)NCc3ccc4c(c3)OCO4)ccc21", "note": "[Example 29, 3-(Benzo[1,3]dioxol-5-ylmethyl)-1-methyl-2,4-dioxo-1,2,3,4-tetrahydroquinazoline-6carboxylic acid (benzo[1,3]dioxol-5-ylmethyl)amide]", "IC50": 28}
{"smiles": "Cn1c(=O)n(Cc2ccccc2)c(=O)c2cc(C(=O)NCc3ccccc3)ccc21", "note": "[Example 10, 3-Benzyl-1-methyl-2,4-dioxo-1,2,3,4-tetrahydroquinazoline-6carboxylic acid benzylamide]", "IC50": 49}
{"smiles": "O=C(NCc1ccccc1)c1ccc2[nH]c(=O)n(Cc3cccs3)c(=O)c2c1", "note": "[Example 21, 2,4-Dioxo3-(thien-2-ylmethyl)-1,2,3,4-tetrahydroquinazoline-6-carboxylic acid benzylamide]", "IC50": 9}
{"smiles": "O=C(OCc1ccncc1)c1ccc2[nH]c(=O)n(Cc3ccc4c(c3)OCO4)c(=O)c2c1", "note": "[Example 45, 4-Pyridylmethyl3-(benzo[1,3]dioxol-5-ylmethyl)-2,4-dioxo-1,2,3,4-tetrahydroquinazoline6-carboxylate]", "IC50": 7}
{"smiles": "COC(=O)c1ccc(CNC(=O)c2ccc3c(c2)c(=O)n(Cc2ccccc2)c(=O)n3C)cc1", "note": "[Example 11, Methyl 4-({[1-(3-benzyl-1-methyl-2,4-dioxo-1,2,3,4-tetrahydroquinazolin-6-yl)methanoyl]amino}methyl)benzoate]", "IC50": 167}
{"smiles": "COc1cc(CNC(=O)c2ccc3c(c2)c(=O)n(Cc2ccccc2)c(=O)n3C)ccc1O", "note": "[Example 12, 3-Benzy-1-methyl-2,4-dioxo-1,3,3,4-tetrahydroquinazoline-6-carboxylic acid 4-hydroxy-3-methoxybenzylamide]", "IC50": 1320}
{"smiles": "Cn1c(=O)n(Cc2ccccc2)c(=O)c2cc(C(=O)NCc3ccncc3)ccc21", "note": "[Example 14, 3-Benzyl-1-methyl-2,4-dioxo-1,2,3,4-tetrahydroquinazoline-6-carboxylic acid (4-pyridylmethyl)amide]", "IC50": 57}
{"smiles": "COc1ccc(Cn2c(=O)[nH]c3ccc(C(=O)NCc4ccc5c(c4)OCO5)cc3c2=O)cc1", "note": "[Example 16, 3-(4-Methoxybenzyl)-2,4-dioxo-1,2,3,4-tetrahydroquinazoline-6-carboxylic acid (benzo[1,3]dioxol-5-ylmethyl)amide]", "IC50": 42}
